Legend:
D(3) dopamine receptor = D(3) dopamine receptor (Homo sapiens, UniProt P35462)
[1] = molecular target: Sodium-dependent dopamine transporter (Homo sapiens, UniProt Q01959)
[2] = molecular target: T1, Alpha-2A adrenergic receptor (Homo sapiens, UniProt P08913)
T1 sequence (P08913 whole entry): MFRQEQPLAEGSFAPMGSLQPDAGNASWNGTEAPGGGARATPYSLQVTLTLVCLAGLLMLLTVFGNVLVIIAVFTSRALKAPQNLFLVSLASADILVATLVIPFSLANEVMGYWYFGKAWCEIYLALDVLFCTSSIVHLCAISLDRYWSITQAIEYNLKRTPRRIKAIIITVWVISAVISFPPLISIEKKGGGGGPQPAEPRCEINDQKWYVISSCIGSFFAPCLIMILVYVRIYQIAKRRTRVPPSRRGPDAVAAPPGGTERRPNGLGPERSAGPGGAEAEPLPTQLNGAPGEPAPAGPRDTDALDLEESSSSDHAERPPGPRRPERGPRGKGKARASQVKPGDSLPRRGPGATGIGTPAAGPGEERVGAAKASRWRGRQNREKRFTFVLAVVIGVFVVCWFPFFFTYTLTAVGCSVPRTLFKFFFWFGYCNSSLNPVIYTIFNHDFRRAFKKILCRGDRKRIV

[3] = molecular target: cGMP-inhibited 3',5'-cyclic phosphodiesterase 3A (Homo sapiens, UniProt Q14432); assay type: functional
D(1A) dopamine receptor = D(1A) dopamine receptor (Homo sapiens, UniProt P21728)
Thromboxane A2 receptor [4] = molecular target: T2, Thromboxane A2 receptor (Homo sapiens, UniProt P21731); assay type: functional, cell-based
T2 sequence (P21731 whole entry): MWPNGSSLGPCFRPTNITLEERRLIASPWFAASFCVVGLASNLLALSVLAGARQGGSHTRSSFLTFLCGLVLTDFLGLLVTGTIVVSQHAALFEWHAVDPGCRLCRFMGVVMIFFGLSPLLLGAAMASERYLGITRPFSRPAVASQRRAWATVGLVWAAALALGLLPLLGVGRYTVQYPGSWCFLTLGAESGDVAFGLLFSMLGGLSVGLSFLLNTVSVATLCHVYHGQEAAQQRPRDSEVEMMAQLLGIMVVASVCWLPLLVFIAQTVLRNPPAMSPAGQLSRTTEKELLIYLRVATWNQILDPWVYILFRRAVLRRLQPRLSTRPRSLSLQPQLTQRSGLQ

Thromboxane A2 receptor [5] = molecular target: T2, Thromboxane A2 receptor; assay type: functional, cell-based; remark: listed apart in the source
[6] = molecular target: T3, Alpha-1A adrenergic receptor (Homo sapiens, UniProt P35348); assay type: functional, cell-based
T3 sequence (P35348 whole entry): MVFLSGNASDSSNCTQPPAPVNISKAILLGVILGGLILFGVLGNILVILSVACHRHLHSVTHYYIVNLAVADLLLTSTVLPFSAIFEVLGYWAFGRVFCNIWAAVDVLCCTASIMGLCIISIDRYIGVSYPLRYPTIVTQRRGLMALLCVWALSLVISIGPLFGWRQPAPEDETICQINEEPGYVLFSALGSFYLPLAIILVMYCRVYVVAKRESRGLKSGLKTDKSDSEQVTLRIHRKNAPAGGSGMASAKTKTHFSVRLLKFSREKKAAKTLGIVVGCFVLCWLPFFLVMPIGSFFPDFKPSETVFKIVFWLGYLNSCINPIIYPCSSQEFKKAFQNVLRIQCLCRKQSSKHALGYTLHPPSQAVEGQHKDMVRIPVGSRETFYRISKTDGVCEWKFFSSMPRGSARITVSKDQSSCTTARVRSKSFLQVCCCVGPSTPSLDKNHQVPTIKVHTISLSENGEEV

[7] = molecular target: Vascular endothelial growth factor receptor 2 (Homo sapiens, UniProt P35968); assay type: functional
[8] = molecular target: Gamma-aminobutyric acid receptor subunit alpha-1 (Rattus norvegicus, UniProt P62813)
[9] = molecular target: T3, Alpha-1A adrenergic receptor; assay type: functional, cell-based; remark: listed apart in the source
[10] = molecular target: Beta-1 adrenergic receptor (Homo sapiens, UniProt P08588); assay type: functional
Histamine H3 receptor = Histamine H3 receptor (Homo sapiens, UniProt Q9Y5N1)
[11] = molecular target: 5-hydroxytryptamine receptor 2B (Homo sapiens, UniProt P41595); assay type: functional, cell-based
[12] = molecular target: Beta-2 adrenergic receptor (Homo sapiens, UniProt P07550); assay type: functional, cell-based
Mu-type opioid receptor = Mu-type opioid receptor (Homo sapiens, UniProt P35372); test: biochemical; assay type: functional
[13] = molecular target: T4, Muscarinic acetylcholine receptor M1 (Homo sapiens, UniProt P11229); assay type: functional
T4 sequence (P11229 whole entry): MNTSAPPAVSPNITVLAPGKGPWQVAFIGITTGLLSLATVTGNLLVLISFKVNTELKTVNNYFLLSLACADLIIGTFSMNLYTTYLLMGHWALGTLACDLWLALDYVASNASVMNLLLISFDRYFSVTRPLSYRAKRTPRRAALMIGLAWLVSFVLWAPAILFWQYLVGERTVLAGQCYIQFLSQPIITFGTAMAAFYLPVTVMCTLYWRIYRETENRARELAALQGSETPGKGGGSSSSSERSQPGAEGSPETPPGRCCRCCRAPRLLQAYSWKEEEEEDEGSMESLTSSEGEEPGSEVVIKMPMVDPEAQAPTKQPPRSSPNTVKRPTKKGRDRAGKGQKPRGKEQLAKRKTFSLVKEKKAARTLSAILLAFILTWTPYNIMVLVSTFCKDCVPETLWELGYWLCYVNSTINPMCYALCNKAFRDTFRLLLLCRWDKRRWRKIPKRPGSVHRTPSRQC

[14] = molecular target: Muscarinic acetylcholine receptor M3 (Homo sapiens, UniProt P20309)
Histamine H1 receptor = Histamine H1 receptor (Homo sapiens, UniProt P35367)
Note: assay procedure not described here.

Chain of Sodium-dependent dopamine transporter (Q01959 whole entry): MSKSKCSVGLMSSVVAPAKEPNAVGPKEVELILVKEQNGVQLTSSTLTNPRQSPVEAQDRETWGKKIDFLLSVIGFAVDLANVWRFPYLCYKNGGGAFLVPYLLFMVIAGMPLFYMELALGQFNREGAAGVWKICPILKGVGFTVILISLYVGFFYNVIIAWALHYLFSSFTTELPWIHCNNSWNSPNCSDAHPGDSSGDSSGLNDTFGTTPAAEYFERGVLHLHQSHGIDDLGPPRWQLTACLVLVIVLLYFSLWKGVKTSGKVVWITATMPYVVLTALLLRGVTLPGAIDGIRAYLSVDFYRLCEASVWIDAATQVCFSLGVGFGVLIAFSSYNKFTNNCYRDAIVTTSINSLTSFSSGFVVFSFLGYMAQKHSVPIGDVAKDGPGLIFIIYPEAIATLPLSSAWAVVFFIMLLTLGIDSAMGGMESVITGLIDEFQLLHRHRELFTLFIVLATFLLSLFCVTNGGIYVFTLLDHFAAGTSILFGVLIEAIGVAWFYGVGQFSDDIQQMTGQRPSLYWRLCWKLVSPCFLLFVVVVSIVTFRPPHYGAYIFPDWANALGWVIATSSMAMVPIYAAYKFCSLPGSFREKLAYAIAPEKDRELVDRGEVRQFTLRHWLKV
Chain of D(3) dopamine receptor (P35462 whole entry): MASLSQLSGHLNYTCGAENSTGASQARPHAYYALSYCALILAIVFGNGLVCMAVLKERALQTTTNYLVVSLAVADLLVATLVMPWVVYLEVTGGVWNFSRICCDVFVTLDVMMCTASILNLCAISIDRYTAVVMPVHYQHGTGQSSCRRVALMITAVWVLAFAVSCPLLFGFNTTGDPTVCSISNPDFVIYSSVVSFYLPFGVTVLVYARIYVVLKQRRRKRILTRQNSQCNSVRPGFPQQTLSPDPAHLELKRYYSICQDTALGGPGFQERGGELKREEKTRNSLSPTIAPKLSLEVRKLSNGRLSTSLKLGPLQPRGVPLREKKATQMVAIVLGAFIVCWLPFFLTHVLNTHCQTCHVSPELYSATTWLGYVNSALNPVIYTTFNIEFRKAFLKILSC
Chain of cGMP-inhibited 3',5'-cyclic phosphodiesterase 3A (Q14432 whole entry): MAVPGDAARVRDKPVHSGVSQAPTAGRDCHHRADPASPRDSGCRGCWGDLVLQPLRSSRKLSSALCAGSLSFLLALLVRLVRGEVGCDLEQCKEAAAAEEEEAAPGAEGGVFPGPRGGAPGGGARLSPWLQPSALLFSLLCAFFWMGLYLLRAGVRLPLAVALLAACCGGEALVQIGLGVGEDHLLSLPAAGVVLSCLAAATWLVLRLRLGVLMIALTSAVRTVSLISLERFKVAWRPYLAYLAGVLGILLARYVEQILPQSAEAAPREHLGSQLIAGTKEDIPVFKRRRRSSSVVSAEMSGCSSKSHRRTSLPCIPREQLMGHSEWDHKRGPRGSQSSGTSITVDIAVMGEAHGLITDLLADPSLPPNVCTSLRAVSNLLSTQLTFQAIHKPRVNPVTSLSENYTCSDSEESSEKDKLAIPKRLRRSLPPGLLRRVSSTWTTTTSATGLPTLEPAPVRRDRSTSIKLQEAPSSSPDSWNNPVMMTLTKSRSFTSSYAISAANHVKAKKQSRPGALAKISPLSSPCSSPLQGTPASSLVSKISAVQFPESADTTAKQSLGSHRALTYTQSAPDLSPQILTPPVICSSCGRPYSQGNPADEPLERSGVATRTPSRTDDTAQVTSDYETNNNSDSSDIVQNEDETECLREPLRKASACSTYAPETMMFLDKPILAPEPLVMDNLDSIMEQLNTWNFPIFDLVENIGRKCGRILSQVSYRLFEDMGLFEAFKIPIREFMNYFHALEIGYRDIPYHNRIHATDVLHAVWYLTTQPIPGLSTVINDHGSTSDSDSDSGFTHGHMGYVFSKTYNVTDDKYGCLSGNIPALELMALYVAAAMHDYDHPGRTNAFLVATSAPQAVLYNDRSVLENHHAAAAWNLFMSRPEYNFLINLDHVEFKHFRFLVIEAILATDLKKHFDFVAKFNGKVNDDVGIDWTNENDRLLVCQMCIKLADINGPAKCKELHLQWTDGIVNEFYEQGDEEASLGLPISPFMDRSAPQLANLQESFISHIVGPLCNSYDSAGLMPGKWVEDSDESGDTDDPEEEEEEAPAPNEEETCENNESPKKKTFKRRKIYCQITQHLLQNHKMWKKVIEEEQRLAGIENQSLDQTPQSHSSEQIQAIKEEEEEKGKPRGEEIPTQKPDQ
Chain of Vascular endothelial growth factor receptor 2 (P35968 whole entry): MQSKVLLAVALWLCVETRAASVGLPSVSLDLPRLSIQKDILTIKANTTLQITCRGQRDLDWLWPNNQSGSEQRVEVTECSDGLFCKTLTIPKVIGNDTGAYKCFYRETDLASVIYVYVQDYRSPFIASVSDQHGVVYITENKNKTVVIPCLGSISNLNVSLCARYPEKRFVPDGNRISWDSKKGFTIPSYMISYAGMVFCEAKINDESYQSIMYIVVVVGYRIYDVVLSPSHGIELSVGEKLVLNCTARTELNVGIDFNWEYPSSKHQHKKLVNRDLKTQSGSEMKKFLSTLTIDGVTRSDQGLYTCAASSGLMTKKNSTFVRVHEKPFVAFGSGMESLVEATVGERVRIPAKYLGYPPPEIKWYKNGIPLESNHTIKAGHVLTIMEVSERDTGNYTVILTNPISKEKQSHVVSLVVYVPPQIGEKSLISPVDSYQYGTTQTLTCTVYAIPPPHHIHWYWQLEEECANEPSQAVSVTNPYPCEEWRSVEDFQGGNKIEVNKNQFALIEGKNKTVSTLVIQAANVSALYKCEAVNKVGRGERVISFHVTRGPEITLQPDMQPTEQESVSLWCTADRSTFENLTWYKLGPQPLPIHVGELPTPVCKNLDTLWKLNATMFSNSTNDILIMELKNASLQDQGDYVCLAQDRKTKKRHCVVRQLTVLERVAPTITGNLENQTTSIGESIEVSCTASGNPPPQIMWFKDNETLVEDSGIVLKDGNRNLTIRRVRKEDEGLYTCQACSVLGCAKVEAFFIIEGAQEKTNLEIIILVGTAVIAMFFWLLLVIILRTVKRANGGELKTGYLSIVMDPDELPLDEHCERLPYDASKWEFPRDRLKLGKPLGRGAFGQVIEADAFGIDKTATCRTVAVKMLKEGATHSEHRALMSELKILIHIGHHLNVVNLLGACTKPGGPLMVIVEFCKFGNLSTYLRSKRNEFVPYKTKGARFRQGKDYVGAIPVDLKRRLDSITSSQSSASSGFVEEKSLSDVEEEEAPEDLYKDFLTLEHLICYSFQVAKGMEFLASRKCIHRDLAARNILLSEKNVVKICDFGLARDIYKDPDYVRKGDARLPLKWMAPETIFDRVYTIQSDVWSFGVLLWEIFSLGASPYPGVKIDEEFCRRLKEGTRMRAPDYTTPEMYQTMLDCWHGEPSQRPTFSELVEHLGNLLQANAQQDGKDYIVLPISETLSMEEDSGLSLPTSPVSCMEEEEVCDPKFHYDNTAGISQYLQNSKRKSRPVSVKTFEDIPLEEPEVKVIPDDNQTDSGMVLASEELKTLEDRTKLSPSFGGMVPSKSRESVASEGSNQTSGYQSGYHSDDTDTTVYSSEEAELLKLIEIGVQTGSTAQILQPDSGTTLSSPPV
Chain of D(1A) dopamine receptor (P21728 whole entry): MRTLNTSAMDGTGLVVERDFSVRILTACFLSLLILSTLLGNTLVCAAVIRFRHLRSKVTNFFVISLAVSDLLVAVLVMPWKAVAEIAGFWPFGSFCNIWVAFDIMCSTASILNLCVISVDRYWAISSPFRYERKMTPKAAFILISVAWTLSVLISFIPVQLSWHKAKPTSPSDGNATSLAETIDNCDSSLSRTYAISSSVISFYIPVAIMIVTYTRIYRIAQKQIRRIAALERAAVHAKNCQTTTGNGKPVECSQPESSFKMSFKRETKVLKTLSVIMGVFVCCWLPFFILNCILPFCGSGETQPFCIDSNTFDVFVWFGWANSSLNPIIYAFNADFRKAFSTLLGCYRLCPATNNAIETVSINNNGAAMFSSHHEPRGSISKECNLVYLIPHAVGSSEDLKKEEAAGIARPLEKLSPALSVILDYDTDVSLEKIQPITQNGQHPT
Chain of Beta-2 adrenergic receptor (P07550 whole entry): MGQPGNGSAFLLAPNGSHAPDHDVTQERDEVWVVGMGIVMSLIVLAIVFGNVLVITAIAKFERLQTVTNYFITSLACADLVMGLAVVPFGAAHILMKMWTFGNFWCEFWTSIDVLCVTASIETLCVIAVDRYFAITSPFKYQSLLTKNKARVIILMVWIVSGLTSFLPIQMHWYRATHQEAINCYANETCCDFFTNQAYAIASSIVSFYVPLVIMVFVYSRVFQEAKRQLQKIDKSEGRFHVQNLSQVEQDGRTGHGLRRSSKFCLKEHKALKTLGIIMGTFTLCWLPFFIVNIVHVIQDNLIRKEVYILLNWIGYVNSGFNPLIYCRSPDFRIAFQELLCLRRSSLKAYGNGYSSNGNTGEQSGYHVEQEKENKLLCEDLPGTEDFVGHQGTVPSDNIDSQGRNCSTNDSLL
Chain of Histamine H3 receptor (Q9Y5N1 whole entry): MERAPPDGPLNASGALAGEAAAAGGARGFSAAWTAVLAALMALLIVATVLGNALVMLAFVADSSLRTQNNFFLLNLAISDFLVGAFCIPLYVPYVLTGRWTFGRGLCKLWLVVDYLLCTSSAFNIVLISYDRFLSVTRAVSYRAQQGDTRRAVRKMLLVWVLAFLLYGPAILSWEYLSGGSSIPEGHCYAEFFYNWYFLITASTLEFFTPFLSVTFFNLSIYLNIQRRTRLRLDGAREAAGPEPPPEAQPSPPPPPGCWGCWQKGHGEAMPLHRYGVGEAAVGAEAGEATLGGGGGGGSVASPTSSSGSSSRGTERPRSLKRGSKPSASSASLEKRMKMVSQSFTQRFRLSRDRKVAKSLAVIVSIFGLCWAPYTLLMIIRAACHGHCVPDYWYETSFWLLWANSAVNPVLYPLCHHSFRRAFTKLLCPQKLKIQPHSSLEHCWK

SMILES | AC50 (D(3) dopamine receptor) [µM] | AC50 [1] [µM] | AC50 [2] [µM] | AC50 [3] [µM] | AC50 (D(1A) dopamine receptor) [µM] | AC50 (Thromboxane A2 receptor [4]) [µM] | AC50 (Thromboxane A2 receptor [5]) [µM] | AC50 [6] [µM] | AC50 [7] [µM] | AC50 [8] [µM] | AC50 [9] [µM] | AC50 [10] [µM] | AC50 (Histamine H3 receptor) [µM] | AC50 [11] [µM] | AC50 [12] [µM] | AC50 (Mu-type opioid receptor) [µM] | AC50 [13] [µM] | AC50 [14] [µM] | AC50 (Histamine H1 receptor) [µM]
CN(C)CCOC(c1ccccc1)c1ccc(Br)cc1 (stereo not drawn) [BROMODIPHENHYDRAMINE] | 2.68 | 0.757 | 8.38 | > 30 | 2.95 | > 30 | 14.8 | > 10 | > 30 | – | – | – | – | – | – | – | – | – | –
CC(=O)O[C@]1(C(C)=O)CC[C@H]2[C@@H]3C=C(Cl)C4=CC(=O)CC[C@]4(C)[C@H]3CC[C@@]21C [CHLORMADINONE ACETATE] | > 30 | > 30 | > 30 | > 30 | > 30 | > 30 | 28.5 | 18 | > 30 | – | – | – | – | – | – | – | – | – | –
NC(=O)OCC(O)COc1ccc(Cl)cc1 (stereo not drawn) [CHLORPHENESIN CARBAMATE] | > 30 | > 30 | > 30 | > 30 | > 30 | > 30 | > 30 | > 30 | > 30 | – | – | – | – | – | – | – | – | – | –
CCC(=O)O[C@]1(C(=O)CCl)[C@@H](C)C[C@H]2[C@@H]3C[C@H](F)C4=CC(=O)C=C[C@]4(C)[C@@]3(F)[C@@H](O)C[C@@]21C [HALOBETASOL PROPIONATE] | > 30 | > 30 | > 30 | > 30 | > 30 | > 30 | > 30 | 13.1 | > 30 | – | – | – | – | – | – | – | – | – | –
CC(N)Cc1ccc(O)cc1 (stereo not drawn) [HYDROXYAMPHETAMINE] | > 30 | > 30 | > 30 | > 30 | > 30 | > 30 | > 30 | > 30 | > 30 | – | – | – | – | – | – | – | – | – | –
Cc1cc(NC(=O)C2=C(O)c3ccccc3S(=O)(=O)N2C)no1 [ISOXICAM] | > 30 | > 30 | > 30 | > 30 | > 30 | > 30 | > 30 | > 30 | 24.4 | – | – | – | – | – | – | – | – | – | –
COc1cc2c(cc1OC)CC(=O)N(CCCN(C)C[C@H]1Cc3cc(OC)c(OC)cc31)CC2 [IVABRADINE] | 2.61 | > 30 | > 30 | > 30 | > 30 | > 30 | > 30 | > 30 | > 30 | – | – | – | – | – | – | – | – | – | –
CC(C)(C)NC[C@H](O)COc1cccc2c1CCCC2=O [LEVOBUNOLOL] | > 30 | > 30 | > 30 | > 30 | > 30 | > 30 | > 30 | > 30 | > 30 | – | – | – | – | – | – | – | – | – | –
CC(C(=O)O)c1ccc(CC2CCCC2=O)cc1 (stereo not drawn) [LOXOPROFEN] | – | – | – | – | – | – | – | – | – | > 30 | > 30 | > 30 | > 30 | > 30 | > 30 | > 30 | – | – | –
Cc1c(N(C)CS(=O)(=O)O)c(=O)n(-c2ccccc2)n1C [METAMIZOLE] | > 30 | > 30 | > 30 | > 30 | > 30 | > 30 | > 30 | > 30 | > 30 | – | – | – | – | – | – | – | – | – | –
CN1C(=O)/C(=N\NC(N)=S)c2ccccc21 [METHISAZONE] | > 30 | > 30 | > 30 | > 3 | > 30 | 21.8 | > 10 | 13.1 | > 10 | – | – | – | – | – | – | – | – | – | –
COC(=O)c1ccc(O)cc1 [METHYLPARABEN] | > 30 | > 30 | > 30 | > 30 | > 30 | > 30 | > 30 | > 30 | > 30 | – | – | – | – | – | – | – | – | – | –
CCCc1nc(C(C)(C)O)c(C(=O)O)n1Cc1ccc(-c2ccccc2-c2nnn[nH]2)cc1 [OLMESARTAN] | > 30 | > 30 | > 30 | > 30 | > 30 | > 30 | > 30 | > 30 | > 30 | – | – | – | – | – | – | – | – | – | –
NCC(CC(=O)O)c1ccccc1 (stereo not drawn) [PHENIBUT] | > 30 | > 30 | > 30 | > 30 | > 30 | > 30 | > 30 | > 30 | > 30 | – | – | – | – | – | – | – | – | – | –
Cc1ncc(COP(=O)(O)O)c(C=O)c1O [PYRIDOXAL PHOSPHATE ANHYDROUS] | > 30 | > 30 | > 30 | > 30 | > 30 | > 30 | > 30 | > 30 | > 30 | – | – | – | – | – | – | – | – | – | –
c1ccc2c(c1)CCc1ccccc1N2C1CN2CCC1CC2 (stereo not drawn) [QUINUPRAMINE] | 6.47 | 2.62 | 13.2 | > 30 | 2.41 | > 30 | > 30 | 2.41 | > 30 | – | – | – | – | – | – | – | – | – | –
C[C@H](Cc1cc2c(c(C(N)=O)c1)N(CCCO)CC2)NCCOc1ccccc1OCC(F)(F)F [SILODOSIN] | 0.0483 | 18.6 | 1.28 | > 30 | 10.8 | > 30 | > 30 | 0.003 | > 30 | – | 0.0029 | – | – | – | – | – | – | – | –
CC1=CCC(C(C)(C)O)CC1O (stereo not drawn) [SOBREROL] | > 30 | > 30 | > 30 | > 10 | > 30 | > 30 | > 30 | > 30 | > 30 | – | – | – | – | – | – | – | – | – | –
CCOC(=O)N1CSC[C@H]1C(=O)O [TELMESTEINE] | > 30 | > 30 | > 30 | > 30 | > 30 | > 30 | > 30 | > 30 | > 30 | – | – | – | – | – | – | – | – | – | –
Cc1cc(C(C)(C)C)cc(C)c1CC1=NCCN1 [XYLOMETAZOLINE] | – | – | – | – | – | – | – | – | – | > 30 | – | > 30 | 6.9 | – | > 30 | > 30 | 14.4 | 10 | > 30

Reference: ChEMBL document CHEMBL5291721, “A preclinical secondary pharmacology resource illuminates target-adverse drug reaction associations of marketed drugs” (Nat Commun, 2023)
